According to US11498903B2 (BRISTOL-MYERS SQUIBB COMPANY, priority 2017, dated 2022):
Like-named read-outs stand apart in the source and are kept apart here.

Target: T1, human APJ receptor (Homo sapiens, UniProt P35414)
T1 construct: expressed in transfected cells
T1 sequence (P35414 1-380): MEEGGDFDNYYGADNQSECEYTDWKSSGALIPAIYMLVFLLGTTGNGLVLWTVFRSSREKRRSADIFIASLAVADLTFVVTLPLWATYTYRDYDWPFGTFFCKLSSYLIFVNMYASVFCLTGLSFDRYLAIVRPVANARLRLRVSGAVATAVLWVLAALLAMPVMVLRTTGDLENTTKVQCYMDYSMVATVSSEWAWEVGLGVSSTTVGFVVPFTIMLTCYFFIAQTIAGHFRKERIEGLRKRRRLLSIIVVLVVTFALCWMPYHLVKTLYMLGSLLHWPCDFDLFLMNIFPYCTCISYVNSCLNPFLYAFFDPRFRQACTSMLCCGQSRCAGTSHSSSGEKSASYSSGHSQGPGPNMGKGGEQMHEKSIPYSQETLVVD
Experiment: Intracellular cAMP accumulation assay (APJ hcAMP, HTRF)
Assay type: cell-based
Conditions: HEK293 cells stably expressing human APJ receptor
Method in brief: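 HEK293 cells stably expressing human APJ, 5,000/well, incubated 30 min at room temperature with compound plus […] and 2 μM forskolin. cAMP read by HTRF against a cAMP standard curve; EC50 from variable-slope sigmoidal fit, Ymax as % of (Pyr1)apelin-13 inhibition.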

[1] = Table 1, inhibition of forskolin-mediated cAMP production, read-out: APJ hcAMP EC50
[2] = Table 2, read-out: APJ cAMP Human EC50
[3] = Table 3, read-out: APJ cAMP Human EC50

| Compound | EC50 [1] [nM] | EC50 [2] [nM] | EC50 [3] [nM] |
| --- | --- | --- | --- |
| CCC[C@H](NC(=O)c1ccc(-c2cc(Cl)ccc2-c2nc3ccccc3[nH]2)c(C(=O)O)c1)c1ccccc1 [Example 71, 2′-(1H-1,3-benzodiazol-2-yl)-5′-chloro-4-{[(1S)-1-phenylbutyl]carbamoyl}-[1,1′-biphenyl]-2-carboxylic acid] | 10 to 100 | 10 to 100 |  |
| C[C@@H](NC(=O)c1ccc(-c2cc(Cl)ccc2-c2nc3ccccc3[nH]2)c(C(=O)O)c1)c1cccc(Cl)c1 [Example 72, 2′-(1H-1,3-benzodiazol-2-yl)-5′-chloro-4-{[(1R)-1-(3-chlorophenyl)ethyl]carbamoyl}-[1,1′-biphenyl]-2-carboxylic acid] | 10 to 100 | 10 to 100 |  |
| C[C@@H](NC(=O)c1ccc(-c2cc(Cl)ccc2-c2nc3ccccc3[nH]2)c(C(=O)O)c1)c1cccc2ccccc12 [Example 73, 2′-(1H-1,3-benzodiazol-2-yl)-5′-chloro-4-{[(1R)-1-(naphthalen-1-yl)ethyl]carbamoyl}-[1,1′-biphenyl]-2-carboxylic acid] | 10 to 100 | 10 to 100 |  |
| COc1cccc([C@@H](C)NC(=O)c2ccc(-c3cc(Cl)ccc3-c3nc4ccccc4[nH]3)c(C(=O)O)c2)c1 [Example 74, 2′-(1H-1,3-benzodiazol-2-yl)-5′-chloro-4-{[(1R)-1-(3-methoxyphenyl)ethyl]carbamoyl}-[1,1′-biphenyl]-2-carboxylic acid] | 10 to 100 | 10 to 100 |  |
| C[C@@H](NC(=O)c1ccc(-c2cc(Cl)ccc2-c2nc3ccccc3[nH]2)c(C(=O)O)c1)c1ccccc1Cl [Example 75, 2′-(1H-1,3-benzodiazol-2-yl)-5′-chloro-4-{[(1R)-1-(2-chlorophenyl)ethyl]carbamoyl}-[1,1′-biphenyl]-2-carboxylic acid] | 10 to 100 | 10 to 100 |  |
| C[C@@H](NC(=O)c1ccc(-c2cc(Cl)ccc2-c2nc3ccccc3[nH]2)c(C(=O)O)c1)c1ccccc1 [Example 76, 2′-(1H-1,3-benzodiazol-2-yl)-5′-chloro-4-{[(1R)-1-phenylethyl]carbamoyl}-[1,1′-biphenyl]-2-carboxylic acid] | 10 to 100 | 10 to 100 |  |
| CN(C)C[C@@H](NC(=O)c1ccc(-c2cc(Cl)ccc2-c2nc3ccccc3[nH]2)c(C(=O)O)c1)c1ccccc1 [Example 77, 2′-(1H-1,3-benzodiazol-2-yl)-5′-chloro-4-{[(1S)-2-(dimethylamino)-1-phenylethyl]carbamoyl}-[1,1′-biphenyl]-2-carboxylic acid] | 10 to 100 | 10 to 100 |  |
| COC[C@H](Cc1ccccc1)NC(=O)c1ccc(-c2cc(Cl)ccc2-c2nc3ccccc3[nH]2)c(C(=O)O)c1 [Example 78, 2′-(1H-1,3-benzodiazol-2-yl)-5′-chloro-4-{[(2S)-1-methoxy-3-phenylpropan-2-yl]carbamoyl}-[1,1′-biphenyl]-2-carboxylic acid] | 101 to 500 | 101 to 500 |  |
| COC[C@@H](NC(=O)c1ccc(-c2cc(Cl)ccc2-c2nc3cc(Cl)ccc3[nH]2)c(C(=O)O)c1)c1ccccc1 [Example 79, 5′-chloro-2′-(5-chloro-1H-1,3-benzodiazol-2-yl)-4-{[(1S)-2-methoxy-1-phenylethyl]carbamoyl}-[1,1′-biphenyl]-2-carboxylic acid] | < 10 | < 10 |  |
| COC[C@@H](NC(=O)c1ccc(-c2cc(Cl)ccc2-c2nc3cc(C(C)(C)C)ccc3[nH]2)c(C(=O)O)c1)c1ccccc1 [Example 80, 2′-(5-tert-butyl-1H-1,3-benzodiazol-2-yl)-5′-chloro-4-{[(1S)-2-methoxy-1-phenylethyl]carbamoyl}-[1,1′-biphenyl]-2-carboxylic acid] | < 10 | < 10 |  |
| CCCC(NC(=O)c1ccc(-c2c(Cl)cccc2-c2nc3cc(OC)c(F)cc3[nH]2)c(C(=O)O)c1)c1ccccc1 [Example 84, (S)-2′-chloro-6′-(6-fluoro-5-methoxy-1H-1,3-benzodiazol-2-yl)-4-{[(1R)-1-phenylbutyl]carbamoyl}-[1,1′-biphenyl]-2-carboxylic acid] |  |  | < 10 |
| CCCC(NC(=O)c1ccc(-c2c(Cl)cccc2-c2nc3cc(OC)c(OC)cc3[nH]2)c(C(=O)O)c1)c1ccccc1 [Example 93, (S)-2′-chloro-6′-(5,6-dimethoxy-1H-1,3-benzodiazol-2-yl)-4-{[(1R)-1-phenylbutyl]carbamoyl}-[1,1′-biphenyl]-2-carboxylic acid] | < 10 |  | < 10 |
| CCCC(NC(=O)c1ccc(-c2c(Cl)cccc2-c2ncc(-c3c(F)ccc(F)c3F)[nH]2)c(C(=O)O)c1)c1ccccc1 [Example 100, (S)-2′-chloro-4-{[(1R)-1-phenylbutyl]carbamoyl}-6′-[5-(2,3,6-trifluorophenyl)-1H-imidazol-2-yl]-[1,1′-biphenyl]-2-carboxylic acid] |  |  | < 10 |
| CCCC(NC(=O)c1ccc(-c2c(Cl)cccc2-c2ncc(-c3cccnc3)[nH]2)c(C(=O)O)c1)c1ccccc1 [Example 101, (S)-2′-chloro-4-{[(1R)-1-phenylbutyl]carbamoyl}-6′-[5-(pyridin-3-yl)-1H-imidazol-2-yl]-[1,1′-biphenyl]-2-carboxylic acid] |  |  | < 10 |
| COc1cc2[nH]c(-c3cccc(Cl)c3-c3ccc(C(=O)NC(C)C)cc3C(=O)O)nc2cc1F [Example 109, (S)-2′-chloro-6′-(5-fluoro-6-methoxy-1H-1,3-benzodiazol-2-yl)-4-[(propan-2-yl)carbamoyl]-[1,1′-biphenyl]-2-carboxylic acid] | 10 to 100 |  | 10 to 100 |
| COc1cc2[nH]c(-c3cccc(Cl)c3-c3ccc(C(=O)N4CCC(c5ccccc5)CC4)cc3C(=O)O)nc2cc1F [Example 110, (S)-2′-chloro-6′-(5-fluoro-6-methoxy-1H-1,3-benzodiazol-2-yl)-4-(4-phenylpiperidine-1-carbonyl)-[1,1′-biphenyl]-2-carboxylic acid] | < 10 |  | < 10 |
| COCCNC(=O)c1ccc(-c2c(Cl)cccc2-c2nc3cc(F)c(OC)cc3[nH]2)c(C(=O)O)c1 [Example 111, (S)-2′-chloro-6′-(5-fluoro-6-methoxy-1H-1,3-benzodiazol-2-yl)-4-[(2-methoxyethyl)carbamoyl]-[1,1′-biphenyl]-2-carboxylic acid] |  |  | < 10 |
| COc1cc2[nH]c(-c3cccc(Cl)c3-c3ccc(C(=O)NCCc4ccccc4)cc3C(=O)O)nc2cc1F [Example 112, (S)-2′-chloro-6′-(5-fluoro-6-methoxy-1H-1,3-benzodiazol-2-yl)-4-[(2-phenylethyl)carbamoyl]-[1,1′-biphenyl]-2-carboxylic acid] | < 10 |  | < 10 |
| COc1cc2[nH]c(-c3cccc(Cl)c3-c3ccc(C(=O)N4CCc5ccccc5C4)cc3C(=O)O)nc2cc1F [Example 113, (S)-2′-chloro-6′-(5-fluoro-6-methoxy-1H-1,3-benzodiazol-2-yl)-4-(1,2,3,4-tetrahydroisoquinoline-2-carbonyl)-[1,1′-biphenyl]-2-carboxylic acid] | < 10 |  | < 10 |
| COc1cc2[nH]c(-c3cccc(Cl)c3-c3ccc(C(=O)NCCC(C)C)cc3C(=O)O)nc2cc1F [Example 114, (S)-2′-chloro-6′-(5-fluoro-6-methoxy-1H-1,3-benzodiazol-2-yl)-4-[(3-methylbutyl)carbamoyl]-[1,1′-biphenyl]-2-carboxylic acid] | < 10 |  | < 10 |
| COc1ccc(CNC(=O)c2ccc(-c3c(Cl)cccc3-c3nc4cc(F)c(OC)cc4[nH]3)c(C(=O)O)c2)cc1 [Example 115, (S)-2′-chloro-6′-(5-fluoro-6-methoxy-1H-1,3-benzodiazol-2-yl)-4-{[(4-methoxyphenyl)methyl]carbamoyl}-[1,1′-biphenyl}-2-carboxylic acid] |  |  | 10 to 100 |
| COC(=O)CCNC(=O)c1ccc(-c2c(Cl)cccc2-c2nc3cc(F)c(OC)cc3[nH]2)c(C(=O)O)c1 [Example 116, (S)-2′-chloro-6′-(5-fluoro-6-methoxy-1H-1,3-benzodiazol-2-yl)-4-[(3-methoxy-3-oxopropyl)carbamoyl]-[1,1′-biphenyl]-2-carboxylic acid] |  |  | 10 to 100 |
| COc1cc2[nH]c(-c3cccc(Cl)c3-c3ccc(C(=O)NCC(c4ccccc4)c4ccccc4)cc3C(=O)O)nc2cc1F [Example 117, (S)-2′-chloro-4-[(2,2-diphenylethyl)carbamoyl]-6′-(5-fluoro-6-methoxy-1H-1,3-2-benzodiazol-2-yl)-[1,1′-biphenyl]-2-carboxylic acid] | 10 to 100 |  | 10 to 100 |
| COc1cc2[nH]c(-c3cccc(Cl)c3-c3ccc(C(=O)N4CCN(C)CC4)cc3C(=O)O)nc2cc1F [Example 118, (S)-2′-chloro-6′-(5-fluoro-6-methoxy-1H-1,3-benzodiazol-2-yl)-4-(4-methylpiperazine-1-carbonyl)-[1,1′-biphenyl]-2-carboxylic acid] | 10 to 100 |  | 10 to 100 |
| COc1cc2[nH]c(-c3cccc(Cl)c3-c3ccc(C(=O)NCc4ccccc4)cc3C(=O)O)nc2cc1F [Example 119, (S)-4-(benzylcarbamoyl)-2′-chloro-6′-(5-fluoro-6-methoxy-1H-1,3-benzodiazol-2-yl)-[1,1′-biphenyl]-2-carboxylic acid] | 10 to 100 |  | 10 to 100 |
